BindingDB's records for doi:10.7270/Q2Z31X2S (Nmmlsc, 2009)

Target: Cell division control protein 42 homolog (Homo sapiens, UniProt P60953)
Test: wild-type Cdc42 GTP-binding inhibitors, SAR follow-up, biochemical, bead-based multiplex flow cytometry, additional SAR set (AID 2022)
[1] = inactive by the depositor's call

Chain of Cell division control protein 42 homolog (P60953 whole entry): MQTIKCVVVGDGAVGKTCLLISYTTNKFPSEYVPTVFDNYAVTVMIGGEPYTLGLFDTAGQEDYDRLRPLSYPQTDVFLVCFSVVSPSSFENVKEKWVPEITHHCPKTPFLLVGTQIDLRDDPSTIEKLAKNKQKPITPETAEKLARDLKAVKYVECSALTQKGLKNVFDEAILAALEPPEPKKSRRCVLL

COc1ccc(S(=O)(=O)n2c(N)c(C#N)c(-c3cc(Br)c(OC)c(OC)c3)c2C(=O)c2ccccc2)cc1 [UNM-0000305782]
EC50: > 30 µM

CCCCS(=O)(=O)n1c(N)c(C#N)c(-c2cc(OC)c(OC)c(OC)c2)c1C(=O)c1ccccc1 [2-amino-5-benzoyl-1-butylsulfonyl-4-(3,4,5-trimethoxyphenyl)-3-pyrrolecarbonitrile]
EC50: > 30 µM

O=C(C#Cc1ccccc1)c1ccc(Cl)cc1 [UNM-0000306055]
EC50: > 30 µM

O=C(C#Cc1ccccc1)c1ccccc1 [UNM-0000306039]
EC50: > 30 µM

O=C(C#Cc1ccccc1)c1ccc(F)cc1 [UNM-0000306059]
EC50: > 30 µM

COc1cc(-c2c(C#N)c(N)n(S(=O)(=O)c3c(C(C)C)cc(C(C)C)cc3C(C)C)c2C(=O)c2ccccc2)cc(OC)c1OC [2-azanyl-5-(phenylcarbonyl)-4-(3,4,5-trimethoxyphenyl)-1-[2,4,6-tri(propan-2-yl)phenyl]sulfonyl-pyrrole-3-carbonitrile]
EC50: > 30 µM

COc1ccc(S(=O)(=O)n2c(N)c(C#N)c(-c3ccccc3)c2C(=O)c2ccc(Br)cc2)cc1
EC50: > 30 µM

O=C1N=c2c(Cl)cccc2=C1c1[nH]c2ccccc2c1NO [7-chloro-3-[3-(hydroxyamino)-1H-indol-2-yl]-2-indolone]
EC50: > 30 µM

N#Cc1ccc(C(=O)C#Cc2ccccc2)cc1 [4-(3-phenylprop-2-ynoyl)benzenecarbonitrile]
EC50: > 30 µM

N#Cc1c(-c2ccc(Cl)cc2)c(C(=O)c2ccccc2)n(S(=O)(=O)c2ccc([N+](=O)[O-])cc2)c1N [UNM-0000305780]
EC50 [1]: 7.21 µM

CC(C)Cc1ccc([C@H](C)C(=O)O)cc1 [(S)-2-(4-Isobutyl-phenyl)-propionic acid]
EC50 [1]: 16.6 µM

CC(C(=O)O)c1cccc(C(=O)c2ccccc2)c1 (stereo not given) [2-(3-benzoylphenyl)propanoic acid]
EC50: > 30 µM

C[C@@H](C(=O)O)c1cccc(Oc2ccccc2)c1 [calcium;2-(3-phenoxyphenyl)propanoic acid;hydrate]
EC50: > 30 µM

COc1ccc(C(=O)C#Cc2ccccc2)cc1 [1-(4-methoxyphenyl)-3-phenyl-2-propyn-1-one]
EC50: > 30 µM

COc1ccc(-c2c(C#N)c(N)n(S(C)(=O)=O)c2C(=O)c2ccccc2)cc1Br [2-azanyl-4-(3-bromanyl-4-methoxy-phenyl)-1-methylsulfonyl-5-(phenylcarbonyl)pyrrole-3-carbonitrile]
EC50 [1]: 11.2 µM

O=C1Nc2cccc(Br)c2/C1=C1/Cc2ccccc2C1=O
EC50: > 30 µM

O=C1Nc2c(Br)cccc2/C1=C1/Cc2ccccc2C1=O [(3E)-7-bromo-3-(3-oxo-1H-inden-2-ylidene)-1H-indol-2-one]
EC50: > 30 µM

O=C1Nc2ccccc2/C1=C1/Nc2ccccc2C1=O [2-[(3Z)-2-oxo-2,3-dihydro-1H-indol-3-ylidene]-2,3-dihydro-1H-indol-3-one]
EC50: > 30 µM

O=C1NC(=O)/C(=C2/C(=O)Nc3ccccc32)N1
EC50: > 30 µM

COc1ccc(S(=O)(=O)n2c(N)c(C#N)c(-c3cncc(Br)c3)c2C(=O)c2ccccc2)cc1 [2-amino-5-benzoyl-4-(5-bromo-3-pyridinyl)-1-(4-methoxyphenyl)sulfonyl-3-pyrrolecarbonitrile]
EC50: 22.8 µM

CSc1ccc(/C=C2/C(C)=C(CC(=O)O)c3cc(F)ccc32)cc1 [{6-Fluoro-2-methyl-3-[1-(4-methylsulfanyl-phenyl)-meth-(E)-ylidene]-3H-inden-1-yl}-acetic acid]
EC50: > 30 µM

O=C1Nc2ccc(Br)cc2C1=C1Nc2ccccc2C1=O
EC50: > 30 µM

O=C1N=c2ccc(Br)cc2=C1c1[nH]c2ccccc2c1NO [5-bromanyl-3-[3-(oxidanylamino)-1H-indol-2-yl]indol-2-one]
EC50: > 30 µM

O=C(C#Cc1ccccc1)c1ccc([N+](=O)[O-])cc1 [1-(4-nitrophenyl)-3-phenyl-2-propyn-1-one]
EC50: > 30 µM

COc1ccc2cc(CC(=O)O)ccc2c1 [2-(6-methoxynaphthalen-2-yl)ethanoic acid]
EC50: > 30 µM

O=C1Nc2c(Br)cccc2C1=C1Nc2ccccc2C1=O
EC50: > 30 µM

CC1=C(CC(=O)O)c2cc(F)ccc2/C1=C/c1ccc([S+](C)[O-])cc1 (stereo not given) [UNM-0000306136]
EC50: > 30 µM

O=C(C#Cc1ccccc1)c1ccc(OC(F)(F)F)cc1
EC50: > 30 µM

O=[N+]([O-])c1ccc(C#Cc2ccccc2)cc1
EC50: > 30 µM

COC(=O)c1ccc(C(=O)C#Cc2ccccc2)cc1 [4-(1-oxo-3-phenylprop-2-ynyl)benzoic acid methyl ester]
EC50: > 30 µM

CC(=O)Oc1ccccc1C(=O)O [2-(acetyloxy)benzoic acid]
EC50: > 30 µM

O=C1Nc2c(Cl)cccc2C1=C1Nc2ccccc2C1=O
EC50: 0.027 µM

O=C(C#Cc1ccccc1)c1ccccc1[N+](=O)[O-] [UNM-0000306038]
EC50: > 30 µM

O=C(C#Cc1ccccc1)c1cccnc1 [3-phenyl-1-pyridin-3-ylprop-2-yn-1-one]
EC50: > 30 µM

O=C1NC(=S)N/C1=C1\C(=O)Nc2ccccc21 [(3Z)-3-(5-oxo-2-sulfanylideneimidazolidin-4-ylidene)-1H-indol-2-one]
EC50: > 30 µM

O=C1N=c2c(Br)cccc2=C1c1[nH]c2ccccc2c1NO [7-bromanyl-3-[3-(oxidanylamino)-1H-indol-2-yl]indol-2-one]
EC50: > 30 µM

O=C1Nc2ccccc2/C1=C1/Cc2ccccc2C1=O [UNM-0000305763]
EC50: > 30 µM

O=C1N=c2c(F)cccc2=C1c1[nH]c2ccccc2c1NO [7-fluoro-3-[3-(hydroxyamino)-1H-indol-2-yl]-2-indolone]
EC50: 28.1 µM

O=C1Nc2c(F)cccc2C1=C1Nc2ccccc2C1=O
EC50: > 30 µM

O=C1N=c2ccccc2=C1c1[nH]c2ccccc2c1NO [3-[3-(hydroxyamino)-1H-indol-2-yl]-2-indolone]
EC50: > 30 µM
